From paper PMC8097893, “Investigating the effects of two novel 4-MMPB analogs as potent lipoxygenase inhibitors for prostate cancer treatment” (Journal of Biological Research, 2021)
Like-named read-outs stand apart in the source and are kept apart here.

How the values were obtained:
PC-3 cells [1] = assay: MTT cytotoxicity assay on PC-3 cells; type: cell-based, human; settings: PC-3, MTT
Description: (§1) Two mg of each compound was dissolved in 100 μl hydrochloric acid (HCl 0.3 N) to make a primary stock solution. Different concentrations (1.56–50 μg ml^−1) were then prepared by serial dilution from the primary stock solution and further diluted in the culture medium.
(§2) PC-3 cells were obtained from Pasteur Institute (Tehran, Iran) and routinely cultured in RPMI 1640 supplemented with 10% FBS. In order to investigate the toxicity of the compounds on normal cells, in vitro experiments were also performed on HDF cells. These cells were kindly provided by Academic Center for Education, Culture and Research (ACECR, Mashhad, Iran) and grown in DMEM supplemented with 10% FBS. Both cell lines were kept at 37 °C containing 5% CO2 in a humidified incubator.
(§3) The MTT reduction assay is a standard quantitative method to evaluate cytotoxicity. This assay measures cellular dehydrogenases, and is considered as an easy, safe and highly reproducible method. Viable cells reduce yellow tetrazolium salt to purple formazan crystals and thus the color change serves as a marker reflecting cell viability.
(§4) PC-3 and HDF cells were seeded in 96-well plates (NEST, China) at a density of 6000 and 8000 cells per well, respectively and incubated at 37 °C with 5% CO2. […] After 24, 48 and 72 h of treatments, 20 μl MTT solution (5 mg ml^−1 in PBS; phosphate buffered saline) was added to each well, and cells were incubated in the dark for 3–4 h. The media were then removed and purple crystals were dissolved in 160 μl DMSO. The absorbance in each well was measured at 540 nm as reference wavelength in an enzyme-linked immunosorbent assay (ELISA) reader (Awareness Technology, USA) and relative optical density (OD) values were recorded. The percentage of viable cells was calculated using the following equation [49]: Cell viability%=100×ODmeanof treated cells-ODmeanblank/ODmeanof negative control cellsHCl0.3 N-ODmeanblank.

HDF cells = assay: MTT cytotoxicity assay on HDF normal cells; type: cell-based, human
Description: as §1, §2, §3, §4

PC-3 cells [2] = assay: Flow cytometric analysis of cell death (Annexin V-FITC/PI) in PC-3 cells; type: cell-based, human; settings: for percentage of early and late apoptotic/ferroptotic cells (Q3+Q2): PC-3, treated with IC50 value of the compound, 24 h, control 0.133%; for change of Q2 (Annexin V positive/PI positive) population after co-treatment with deferoxamine: PC-3, compared with compound only
Description: To determine the mechanism of cell death induced by 4-MMPB analogs, flow cytometry was employed using the Annexin V-FITC kit with PI (BioLegend, San Diego, USA) according to the manufacturer’s instructions. We performed co-treatment experiments with the compounds and a ferroptosis inhibitor (IC50 values of 4-PMPB + , 4-EMPB + , and 4-MMPB + deferoxamine (80 µM)) on PC-3 cells, to distinguish between ferroptosis and apoptosis mechanisms. […] Then the cells were collected by trypsinization (0.25% trypsin-1 mM EDTA), washed twice with PBS, followed by centrifugation, and resuspended in a binding buffer. Samples were stained with Annexin V-FITC/ PI followed by 15 min incubation at room temperature. Finally, cells were subjected to flow cytometry (BD Accuri C6, San Jose, USA) and the data were analyzed by FlowJo 7.6.1 software (Ashland, USA). Moreover, PC-3 cells treated with 0.3 N HCl were used as a control to eliminate the effects of solvent.

[3] = In vivo side effects evaluation (body weight, serum biochemistry, H&E histology); parameters: species or system C57BL/6 mice; settings: for histological analysis of major organs (liver, kidney, spleen): H&E, day 15 after treatments; for serum AST and ALT levels: 50 mg kg^-1, compared with immunosuppressed control group
PC-3 tumors = assay: Anti-tumor effect in PC-3 xenograft tumor model in immunocompromised C57BL/6 mice
15-LOX-1 = settings: read-out: IC50 against 15-LOX-1; cited from earlier work
soybean LOX-1 [4] = molecular target: T1, soybean LOX-1 (Glycine max, UniProt P08170); assay: Soybean LOX-1 enzyme inhibitory assessment (DMAB-MBTH colour assay, linoleic acid substrate); type: biochemical; settings: from sigmoidal dose-response curves, n = 3; read-out: IC50, soybean LOX-1 inhibition
T1 construct: purchased Sigma-Aldrich
T1 sequence (P08170 1-839): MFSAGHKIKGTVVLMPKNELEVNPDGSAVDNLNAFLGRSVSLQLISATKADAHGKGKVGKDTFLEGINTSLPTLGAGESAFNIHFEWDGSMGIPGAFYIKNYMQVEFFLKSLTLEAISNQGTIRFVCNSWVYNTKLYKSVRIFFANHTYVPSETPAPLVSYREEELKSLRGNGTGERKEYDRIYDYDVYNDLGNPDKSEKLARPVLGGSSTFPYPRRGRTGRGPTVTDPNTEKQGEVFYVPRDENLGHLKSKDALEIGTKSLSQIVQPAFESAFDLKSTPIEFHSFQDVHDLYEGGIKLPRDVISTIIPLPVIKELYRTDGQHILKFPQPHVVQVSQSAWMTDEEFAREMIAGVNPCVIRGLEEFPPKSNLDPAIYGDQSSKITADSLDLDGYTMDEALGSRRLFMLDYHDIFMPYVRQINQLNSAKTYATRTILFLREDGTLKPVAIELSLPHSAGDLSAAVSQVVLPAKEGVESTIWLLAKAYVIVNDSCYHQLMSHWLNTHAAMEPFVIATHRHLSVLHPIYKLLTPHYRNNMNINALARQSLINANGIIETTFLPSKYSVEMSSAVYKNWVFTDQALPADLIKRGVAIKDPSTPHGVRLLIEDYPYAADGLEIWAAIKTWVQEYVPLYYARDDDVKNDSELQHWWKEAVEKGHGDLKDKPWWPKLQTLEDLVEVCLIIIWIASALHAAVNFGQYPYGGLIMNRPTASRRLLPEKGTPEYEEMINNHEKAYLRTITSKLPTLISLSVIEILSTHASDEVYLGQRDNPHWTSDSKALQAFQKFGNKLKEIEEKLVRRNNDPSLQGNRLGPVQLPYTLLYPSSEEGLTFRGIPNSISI
Description: Linoleic acid and two assay solutions (A and B) were prepared in advance. Solution A was 50 mM 3-(dimethylamino)benzoic acid (DMAB) in l00 mM phosphate buffer (pH 7.0). Solution B was a mixture of l0 mM 3-methyl-2-benzothiazolinonehydrazone hydrochloride (MBTH; 3 ml), and hemoglobin (5 mg ml^−1, 3 ml) in 50 mM phosphate buffer at pH 5.0 (25 ml). A linoleic acid solution was prepared by mixing 5.6 mg linoleic acid with 0.5 ml methanol and then diluted with 100 mM KOH to a final volume of 5 ml (4 mM). In the assay, a solution of inhibitors in dimethyl sulfoxide (DMSO) (12.5 μl), soybean LOX-1 (4000 units ml^−1 in 50 mM phosphate buffer pH 7.0; 25 μl), and phosphate buffer, pH 7.0 (50 mM; 435 μl) were mixed in 48-well plates, and pre incubation was carried out for 10 min at 30 °C. A control test was performed with the same volume of DMSO. After the pre incubation, linoleic acid solution (25 μl) was added to start the peroxidation reaction at 30 °C, and 10 min later, solution A (135 μl) and then solution B (65 μl) were added to start the color formation. After 3 min, 100 μl of a 2% sodium dodecyl sulphate (SDS) solution was added to terminate the reaction. The absorbance at 598 nm was compared with the control. These experiments were performed in triplicate and the data were analyzed using GraphPad Prism 6.0 (San Diego, USA).
Lipoxygenase inhibitory activity of 4-MMPB and its analogs was assessed on soybean LOX-1 and the inhibitory potencies (IC50 values) of the mentioned compounds were calculated from their sigmoidal dose–response curves (Fig. 2).

soybean LOX-1 [5] = molecular target: T1, soybean LOX-1; parameters: method as in doi:10.1007/s00044-013-0506-7; settings: read-out: IC50 against soybean LOX-1; cited from earlier work
15-lipoxygenase = molecular target: 15-lipoxygenase; parameters: method as in PMID 17210254; settings: read-out: IC50, 15-lipoxygenase inhibition; cited from earlier work
[6] = 24 h, read-out: IC50 (µM) ± SD (PC-3) 24 h
[7] = 48 h, read-out: IC50 (µM) ± SD (PC-3) 48 h
[8] = 72 h, read-out: IC50 (µM) ± SD (PC-3) 72 h
[9] = 24 h, read-out: IC50 (µM) ± SD (HDF) 24 h
[10] = 48 h, read-out: IC50 (µM) ± SD (HDF) 48 h
[11] = 72 h, read-out: IC50 (µM) ± SD (HDF) 72 h
[12] = 10 and 50 mg kg^-1, 15 days follow up
[13] = high dose 50 mg kg^-1, 15 days, vs PBS and 0.3 N HCl controls

SMILES	IC50 (PC-3 cells [1]; [6]) [µM]	IC50 (PC-3 cells [1]; [7]) [µM]	IC50 (PC-3 cells [1]; [8]) [µM]	IC50 (HDF cells; [9]) [µM]	IC50 (HDF cells; [10]) [µM]	IC50 (HDF cells; [11]) [µM]	percentage of early and late apoptotic/ferroptotic cells (Q3+Q2) (PC-3 cells [2]) [%]	histological analysis of major organs (liver, kidney, spleen) [3]	IC50 (soybean LOX-1 [4]) [µM]	cytotoxicity on normal (HDF) cells, in words (HDF cells)	change of Q2 (Annexin V positive/PI positive) population after co-treatment with deferoxamine (PC-3 cells [2])	serum AST and ALT levels [3]	body weight [3, 12]	tumor growth (PC-3 tumors; [13])	further results
N.N.[Cl][Pt][Cl] [Cisplatin, cisplatin, reference compound]	62.3 ± 1.74	51.5 ± 1.43	41.6 ± 1.11	153 ± 2.89	119 ± 2.56	71.1 ± 3.34	67.8	mild and local accumulation of inflammatory cells	–	–	–	–	–	–	serum liver enzymes ([3]; cisplatin 2 mg kg^-1, compared to control group, p < 0.0001): significantly increased; body weight ([3]; cisplatin 2 mg kg^-1, day 15, p < 0.01 vs other experimental groups): lowest body weights; tumor growth (PC-3 tumors; cisplatin 2 mg kg^-1, 15 days, vs controls and lower-dose groups): significant decrease
CC(C)=CCCC(C)=CCCC(C)=CCOc1cccc2oc(=O)ccc12 [5-farnesyloxycoumarin]	–	–	–	–	–	–	–	–	–	–	–	–	–	–	IC50 (15-LOX-1): 8.32 µM
CCc1nc(N2CCN(C)CC2)nc2c1Nc1ccccc1S2 [4-EMPB, 4-Ethyl-2-(4-methylpiperazinyl)pyrimido[4,5-b]benzothiazine]	–	–	–	–	–	–	60.9	no obvious tissue damages	14.3	weak cytotoxicity	markedly decreased	significantly elevated	no significant changes	effectively inhibited	IC50 (PC-3 cells [1]; Homo sapiens, 24 h, read-out: IC50 (µM) ± SD (PC-3) 24 h): 107 ± 6.17 µM; IC50 (PC-3 cells [1]; Homo sapiens, 48 h, read-out: IC50 (µM) ± SD (PC-3) 48 h): 75 ± 3.39 µM; IC50 (PC-3 cells [1]; Homo sapiens, 72 h, read-out: IC50 (µM) ± SD (PC-3) 72 h): 49 ± 6.76 µM; IC50 (HDF cells; Homo sapiens, 24 h, read-out: IC50 (µM) ± SD (HDF) 24 h): 545.5 ± 1.99 µM; IC50 (HDF cells; Homo sapiens, 48 h, read-out: IC50 (µM) ± SD (HDF) 48 h): 361.7 ± 2.29 µM; IC50 (HDF cells; Homo sapiens, 72 h, read-out: IC50 (µM) ± SD (HDF) 72 h): 258.9 ± 1.86 µM
CCCc1nc(N2CCN(C)CC2)nc2c1Sc1ccccc1N2 [4-PMPB, 4-propyl-2-(4-methylpiperazinyl)pyrimido[4,5-b]benzothiazine]	122 ± 2.62	88.5 ± 2.31	57.6 ± 2.12	1641.1 ± 0.075	1443.7 ± 0.055	1028.9 ± 0.139	52.38	no obvious tissue damages	8.6	no obvious cytotoxicity	markedly decreased	significantly elevated	no significant changes	effectively inhibited	IC50 (soybean LOX-1 [5]): 9 µM
Cc1nc(N2CCN(C)CC2)nc2c1Sc1ccccc1N2 [4-MMPB, 4-Methyl-2-(4-methylpiperazinyl)pyrimido[4,5-b]benzothiazine]	101 ± 2.41	55.6 ± 1.98	40.8 ± 1.79	331 ± 3.33	284 ± 2.98	186 ± 2.81	41.5	no obvious tissue damages	17.1	weak cytotoxicity	markedly decreased	significantly elevated	no significant changes	effectively inhibited	IC50 (15-lipoxygenase): 18 µM
